# Laboratory results reported in patent US12552783B2, “Modulators of proteolysis and associated methods of use” (Arvinas Operations, Inc., priority 2018, dated 2026).
# Target: KRas (Homo sapiens, UniProt P01116, G12C)
# Assay: KRas degradation in NCI-H2030 cells by Western blot, normalized to GAPDH (data of Table 14)
# Format: cell-based
# Set-up: host or cells: NCI-H2030
# Conditions: for Dmax: NCI-H2030; for Percent Degradation at Indicated Concentration (μM): H2030
# Method in brief: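 After a day without serum, the G12C-homozygous cells received each compound at 0.3, 1 and 3 μM, with VHL-based degraders left for 24 h and other compounds for 72 h. DC50 is the concentration giving half-maximal degradation and DMax the maximal degradation, both taken from KRas levels normalized to GAPDH.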
SMILES,"Percent Degradation at Indicated Concentration (μM): 0.3 (H2030 cells, 0.3 μM)","Percent Degradation at Indicated Concentration (μM): 1 (H2030 cells, 1 μM)","Percent Degradation at Indicated Concentration (μM): 3 (H2030 cells, 3 μM)",Dmax (H2030 cells),Percent Degradation at Indicated Concentration (μM) (0.3 μM),Percent Degradation at Indicated Concentration (μM) (1 μM),Percent Degradation at Indicated Concentration (μM) (3 μM),Dmax
"CCC(=O)N1CCN(c2nc(NCCC(=O)N(C)CCOCCOc3cc(-c4scnc4C)ccc3CNC(=O)[C@@H]3C[C@@H](O)CN3C(=O)[C@@H](c3cc(C)no3)C(C)C)nc3c(F)c(-c4cc(O)cc5ccccc45)c(Cl)cc23)CC1 [compound 330, (2S,4R)-N-(2-(2-(2-(3-((6-chloro-8-fluoro-7-(3-hydroxynaphthalen-1-yl)-4-(4-propionylpiperazin-1-yl)quinazolin-2-yl)amino)-N-methylpropanamido)ethoxy)ethoxy)-4-(4-methylthiazol-5-yl)benzyl)-4-hydroxy-1-((R)-3-methyl-2-(3-methylisoxazol-5-yl)butanoyl)pyrrolidine-2-carboxamide]",C (C ≤ 35),C (C ≤ 35),C (C ≤ 35),≤ 35%,,,,
"CCC(=O)N1CCN(c2nc(NCCC(=O)N(C)CCOCCOc3cc(-c4scnc4C)ccc3CNC(=O)[C@@H]3C[C@@H](O)CN3C(=O)[C@H](c3cc(C)no3)C(C)C)nc3c(F)c(-c4cc(O)cc5ccccc45)c(Cl)cc23)CC1 [compound 331, (2S,4R)-N-(2-(2-(2-(3-((6-chloro-8-fluoro-7-(3-hydroxynaphthalen-1-yl)-4-(4-propionylpiperazin-1-yl)quinazolin-2-yl)amino)-N-methylpropanamido)ethoxy)ethoxy)-4-(4-methylthiazol-5-yl)benzyl)-4-hydroxy-1-((S)-3-methyl-2-(3-methylisoxazol-5-yl)butanoyl)pyrrolidine-2-carboxamide]",C (C ≤ 35),C (C ≤ 35),C (C ≤ 35),≤ 35%,,,,
"CCC(=O)N1CCN(c2nc(NCCC(=O)N(C)CCOCCOCCOc3cc(-c4scnc4C)ccc3CNC(=O)[C@@H]3C[C@@H](O)CN3C(=O)[C@@H](c3cc(C)no3)C(C)C)nc3c(F)c(-c4cc(O)cc5ccccc45)c(Cl)cc23)CC1 [compound 332, (2S,4R)-N-(2-(2-(2-(2-(3-((6-chloro-8-fluoro-7-(3-hydroxynaphthalen-1-yl)-4-(4-propionylpiperazin-1-yl)quinazolin-2-yl)amino)-N-methylpropanamido)ethoxy)ethoxy)-ethoxy)-4-(4-methylthiazol-5-yl)benzyl)-4-hydroxy-1-((R)-3-methyl-2-(3-methylisoxazol-5-yl)butanoyl)pyrrolidine-2-carboxamide]",C (C ≤ 35),C (C ≤ 35),C (C ≤ 35),≤ 35%,,,,
"CCC(=O)N1CCN(c2nc(NCCC(=O)N(C)CCOCCOCCOc3cc(-c4scnc4C)ccc3CNC(=O)[C@@H]3C[C@@H](O)CN3C(=O)[C@H](c3cc(C)no3)C(C)C)nc3c(F)c(-c4cc(O)cc5ccccc45)c(Cl)cc23)CC1 [compound 333, (2S,4R)-N-(2-(2-(2-(2-(3-((6-chloro-8-fluoro-7-(3-hydroxynaphthalen-1-yl)-4-(4-propionylpiperazin-1-yl)quinazolin-2-yl)amino)-N-methylpropanamido)ethoxy)ethoxy)ethoxy)-4-(4-methylthiazol-5-yl)benzyl)-4-hydroxy-1-((S)-3-methyl-2-(3-methylisoxazol-5-yl)butanoyl)pyrrolidine-2-carboxamide]",C (C ≤ 35),C (C ≤ 35),C (C ≤ 35),≤ 35%,,,,
"CCC(=O)N1CCN(c2nc(NCCC(=O)N(C)CCOCCOCCOCCOc3cc(-c4scnc4C)ccc3CNC(=O)[C@@H]3C[C@@H](O)CN3C(=O)[C@@H](c3cc(C)no3)C(C)C)nc3c(F)c(-c4cc(O)cc5ccccc45)c(Cl)cc23)CC1 [compound 334, (2S,4R)-N-(2-((15-((6-chloro-8-fluoro-7-(3-hydroxynaphthalen-1-yl)-4-(4-propionylpiperazin-1-yl)quinazolin-2-yl)amino)-12-methyl-13-oxo-3,6,9-trioxa-12-azapentadecyl)oxy)-4-(4-methylthiazol-5-yl)benzyl)-4-hydroxy-1-((R)-3-methyl-2-(3-methylisoxazol-5-yl)butanoyl)pyrrolidine-2-carboxamide]",C (C ≤ 35),C (C ≤ 35),C (C ≤ 35),≤ 35%,,,,
"CCC(=O)N1CCN(c2nc(NCCC(=O)N(C)CCOCCOCCOCCOc3cc(-c4scnc4C)ccc3CNC(=O)[C@@H]3C[C@@H](O)CN3C(=O)[C@H](c3cc(C)no3)C(C)C)nc3c(F)c(-c4cc(O)cc5ccccc45)c(Cl)cc23)CC1 [compound 335, (2S,4R)-N-(2-((15-((6-chloro-8-fluoro-7-(3-hydroxynaphthalen-1-yl)-4-(4-propionylpiperazin-1-yl)quinazolin-2-yl)amino)-12-methyl-13-oxo-3,6,9-trioxa-12-azapentadecyl)oxy)-4-(4-methylthiazol-5-yl)benzyl)-4-hydroxy-1-((S)-3-methyl-2-(3-methylisoxazol-5-yl)butanoyl)pyrrolidine-2-carboxamide]",C (C ≤ 35),C (C ≤ 35),C (C ≤ 35),≤ 35%,,,,
"CCC(=O)N1CCN(c2nc(NCCC(=O)N(C)CCOCCOCCOCCOCCOc3cc(-c4scnc4C)ccc3CNC(=O)[C@@H]3C[C@@H](O)CN3C(=O)C(c3cc(C)no3)C(C)C)nc3c(F)c(-c4cc(O)cc5ccccc45)c(Cl)cc23)CC1 (stereo partly drawn) [compound 336, (2S,4R)-N-(2-((18-((6-chloro-8-fluoro-7-(3-hydroxynaphthalen-1-yl)-4-(4-propionylpiperazin-1-yl)quinazolin-2-yl)amino)-15-methyl-16-oxo-3,6,9,12-tetraoxa-15-azaoctadecyl)oxy)-4-(4-methylthiazol-5-yl)benzyl)-4-hydroxy-1-(3-methyl-2-(3-methylisoxazol-5-yl)butanoyl)pyrrolidine-2-carboxamide]",C (C ≤ 35),C (C ≤ 35),C (C ≤ 35),≤ 35%,,,,

# Further lines, results first:
"Percent Degradation at Indicated Concentration (μM): 0.3 (H2030 cells, 0.3 μM)","Percent Degradation at Indicated Concentration (μM): 1 (H2030 cells, 1 μM)","Percent Degradation at Indicated Concentration (μM): 3 (H2030 cells, 3 μM)",Dmax (H2030 cells),Percent Degradation at Indicated Concentration (μM) (0.3 μM),Percent Degradation at Indicated Concentration (μM) (1 μM),Percent Degradation at Indicated Concentration (μM) (3 μM),Dmax,SMILES
,,,,C (Percent Degradation: C ≤ 35),C (Percent Degradation: C ≤ 35),C (Percent Degradation: C ≤ 35),≤ 35%,C=CC(=O)N1CCN(c2nc(NCCC(=O)N(C)CCOc3cc(-c4scnc4C)ccc3CNC(=O)[C@@H]3C[C@@H](O)CN3C(=O)[C@@H](c3cc(C)no3)C(C)C)nc3c(F)c(-c4cc(O)cc5ccccc45)c(Cl)cc23)CC1 [compound 337]
,,,,C (Percent Degradation: C ≤ 35),C (Percent Degradation: C ≤ 35),C (Percent Degradation: C ≤ 35),≤ 35%,"C=CC(=O)N1CCN(c2nc(NCCC(=O)N(C)CCOc3cc(-c4scnc4C)ccc3CNC(=O)[C@@H]3C[C@@H](O)CN3C(=O)[C@H](c3cc(C)no3)C(C)C)nc3c(F)c(-c4cc(O)cc5ccccc45)c(Cl)cc23)CC1 [compound 338, (2S,4R)-N-(2-(2-(3-((4-(4-acryloylpiperazin-1-yl)-6-chloro-8-fluoro-7-(3-hydroxynaphthalen-1-yl)quinazolin-2-yl)amino)-N-methylpropanamido)ethoxy)-4-(4-methylthiazol-5-yl)benzyl)-4-hydroxy-1-((S)-3-methyl-2-(3-methylisoxazol-5-yl)butanoyl)pyrrolidine-2-carboxamide]"
C (C ≤ 35),C (C ≤ 35),C (C ≤ 35),≤ 35%,,,,,C=CC(=O)N1CCN(c2nc(NCCC(=O)N(C)CCOCCOc3cc(-c4scnc4C)ccc3CNC(=O)[C@@H]3C[C@@H](O)CN3C(=O)[C@@H](c3cc(C)no3)C(C)C)nc3c(F)c(-c4cc(O)cc5ccccc45)c(Cl)cc23)CC1 [compound 339]
C (C ≤ 35),C (C ≤ 35),C (C ≤ 35),≤ 35%,,,,,"C=CC(=O)N1CCN(c2nc(NCCC(=O)N(C)CCOCCOc3cc(-c4scnc4C)ccc3CNC(=O)[C@@H]3C[C@@H](O)CN3C(=O)[C@H](c3cc(C)no3)C(C)C)nc3c(F)c(-c4cc(O)cc5ccccc45)c(Cl)cc23)CC1 [compound 340, (2S,4R)-N-(2-(2-(2-(3-((4-(4-acryloylpiperazin-1-yl)-6-chloro-8-fluoro-7-(3-hydroxynaphthalen-1-yl)quinazolin-2-yl)amino)-N-methylpropanamido)ethoxy)ethoxy)-4-(4-methylthiazol-5-yl)benzyl)-4-hydroxy-1-((S)-3-methyl-2-(3-methylisoxazol-5-yl)butanoyl)pyrrolidine-2-carboxamide]"
,,,,C (Percent Degradation: C ≤ 35),C (Percent Degradation: C ≤ 35),C (Percent Degradation: C ≤ 35),≤ 35%,"C=CC(=O)N1CCN(c2nc(NCCC(=O)N(C)CCOCCOCCOc3cc(-c4scnc4C)ccc3CNC(=O)[C@@H]3C[C@@H](O)CN3C(=O)[C@@H](c3cc(C)no3)C(C)C)nc3c(F)c(-c4cc(O)cc5ccccc45)c(Cl)cc23)CC1 [compound 341, (2S,4R)-N-(2-(2-(2-(2-(3-((4-(4-acryloylpiperazin-1-yl)-6-chloro-8-fluoro-7-(3-hydroxynaphthalen-1-yl)quinazolin-2-yl)amino)-N-methylpropanamido)ethoxy)ethoxy)ethoxy)-4-(4-methylthiazol-5-yl)benzyl)-4-hydroxy-1-((R)-3-methyl-2-(3-methylisoxazol-5-yl)butanoyl)pyrrolidine-2-carboxamide]"
